# Patent US11154543B2, “P38 MAP kinase inhibitors for wound healing” (The Schepens Eye Research Institute, Inc., priority 2015, dated 2021)
# Entries after “also recorded” stand apart in the source; their conditions may differ.
# Assays:
# Assay type in all cases: cell-based
# [1] = tested on: human corneal fibroblasts (HCF); experiment: αSMA western blot in human corneal fibroblasts ± TGF-β1; details: for αSMA protein expression in the presence of TGF-β1: inhibitor 24 h, then inhibitor + TGF-β1 24 h, Birb-796 10 μM, SB239063 20 μM, SB203580 5 uM, compared with HCF+TGF-β1; for αSMA expression (ratio of αSMA to β actin), TGF-β1-induced increase: serum-free, 10 uM inhibitor pre-treatment 24 h, then inhibitor + 2 ng/ml TGF-β1 24 h, compared with TGF-β1 alone (lane 2)
# Description: FIG. 1 is an image of a representative western blot of human corneal fibroblasts cultured with 1) Basic Medium (BM: Eagles minimum essential medium) for 48 hours; 2) BM for 24 hours, then BM+TGF-β1 for 24 hours, 3) BM for 24 hours, then BM+p38 inhibitor for 24 hours, and 4) BM+p38 Inhibitor for 24 hours, then BM+p38 inhibitor+TGFβ1. Graph of SMA corrected per lane with internal control (β-actin).
# FIG. 4 is a graph depicting analysis of αSMA protein expression in human corneal fibroblasts cultured with 1) Basic Medium (BM: Eagles minimum essential medium) for 48 hours; 2) BM for 24 hours, then BM+TGF-β1 for 24 hours, 3) BM for 24 hours, then BM+Birb-796 for 24 hours, 4) BM+Birb-796 for 24 hours, then BM+Birb-796+TGF-β1 for 24 hours; 5) BM for 24 hours, then BM+SB239063 for 24 hours; 6) BM+SB239063 for 24 hours, then BM+SB239063+TGF-β1 for 24 hours; 7) BM for 24 hours, then BM+SB203580 for 24 hours; and 8) BM+SB203580 for 24 hours, then BM+SB203580+TGF-β1 for 24 hours. Graph of SMA corrected per lane with internal control (β-actin).
# The protocol for alpha smooth muscle actin (αSMA) testing in human corneal fibroblasts (HCF) is shown below using treatment with/without p38 inhibitor (SB202190) as an example treatment. • 1. Grow HCF (human corneal fibroblast cells) in 100 mm dishes (×12). • 2. When cells get 60-70% confluent, rinse with PBS for 3 times. Then: • a. Put serum-free EMEM to starve cells overnight. (9×) • b. Put serum-free EMEM with 10 uM of p38 inhibitor (SB202190) overnight to pre-treat cells. (3×) • 3. Next day, treat cells as follows and incubate overnight: • c. 10 ml of serum-free EMEM (3×) • d. 10 ml of serum-free EMEM with 2 ng/ml of TGF-β1. (3×) • e. 10 ml of serum-free EMEM with 10 uM of p38 inhibitor (SB202190). (3×) • f. 10 ml of serum-free EMEM with 10 uM of p38 inhibitor (SB202190) and 2 ng/ml of TGF-β1 into pre-treated dishes (2b). (3×) • 4. Harvest cells by trypsinization and store cells at −80° C.
# (§1) Samples were lysed with RIPA buffer and western blot analysis was performed, as previously described (Chung E H, IOVS 1999; 40:1952-8) with minor changes. Membranes with separated proteins were probed with anti-αSMA (alpha-smooth muscle actin) and β-Actin (beta-actin) according to the protocol in Example 1. After reaction with corresponding DyLight secondary antibodies, membranes were scanned on Odyssey and software was used to measure the bands (ImageJ, v. 1.5), and the data was analyzed and plotted (Prism 5.0; GraphPad software).
# The above protocol was utilized to assay αSMA expression in human corneal and skin fibroblasts under different culture conditions, including in the presence of p38 inhibitor. […] In FIG. 3, high levels of αSMA indicate that most dermal fibroblasts in culture were already myofibroblast cells (lane 1).
# Three additional p38 inhibitors shown in Table 1 below were test in HCF. […] The concentrations of these three inhibitors were not optimized and it is believed that with higher concentration of these p38 inhibitors, αSMA expression will be decreased to a greater extent.
# [2] = tested on: human dermal fibroblasts; experiment: αSMA western blot in human dermal fibroblasts ± TGF-β1; details: BM+10% FBS, p38 inhibitor 24 h pre-treatment ± TGF-β1, compared with normal culture (lane 1) and T1 (lane 2)
# Description: FIG. 3 is an image of a representative western blot of human dermal fibroblasts cultured with 1) Basic Medium (BM: Eagles minimum essential medium)+10% FBS for 48 hours; 2) BM+10% FBS for 24 hours, then BM+10% FBS+TGFβ1 for 24 hours, 3) BM+10% FBS for 24 hours, then BM+10% FBS+p38 inhibitor for 24 hours, and 4) BM+10% FBS+p38 Inhibitor for 24 hours, then BM+10% FBS+p38 inhibitor+TGF-β1. Graph of SMA corrected per lane with internal control (β-actin).
# The protocol for alpha smooth muscle actin (αSMA) testing in human corneal fibroblasts (HCF) is shown below using treatment with/without p38 inhibitor (SB202190) as an example treatment. • 1. Grow HCF (human corneal fibroblast cells) in 100 mm dishes (×12). • 2. When cells get 60-70% confluent, rinse with PBS for 3 times. Then: • a. Put serum-free EMEM to starve cells overnight. (9×) • b. Put serum-free EMEM with 10 uM of p38 inhibitor (SB202190) overnight to pre-treat cells. (3×) • 3. Next day, treat cells as follows and incubate overnight: • c. […]
# as §1, with “Membranes with separated proteins were probed with anti-αSMA (alpha-smooth muscle actin) and β-Actin (beta-actin) according to the protocol in Example 1.” left out, “software). […]” for “software).”
# [3] = tested on: human corneal fibroblasts; experiment: Indirect immunofluorescence of SMA in human corneal fibroblasts; details: HCF; p38 inhibitor 24 h, then p38 inhibitor + TGF-β1; compared with TGF-β1 alone (FIG. 2B)
# Description: FIGS. 2A-2D are representative indirect immunofluorescent images of human corneal fibroblasts. […] Grey stripes staining=SMA and grey dots staining=DAPI, a nuclear counterstain. […] This is in agreement with the western blot in FIG. 1.
# [4] = tested on: human corneal 3-D constructs (HCF and their self-assembled matrix); experiment: αSMA western blot in human corneal 3-D stromal constructs
# Description: FIG. 6 includes a bar graph and a western blot showing analysis of αSMA expression in human corneal 3-D constructs. Human Corneal Fibroblasts (HCF) were cultured as follows: 1) RM (Regular Medium: Eagle's minimum essential medium+10% FBS for 9 days); 2) T1 (RM for 24 hours, then RM+2 ng/ml of TGF-beta (T1) for 8 days); 3) p38 inhibitor (p38inh) (RM for 24 hours, then RM+10 μM of p38 inhibitor [SB202190] for 8 days); and 4) T1+p38inh (RM+SB202190 for 24 hours, then RM+SB202190+TGF-1 for 8 days). Graph of αSMA corrected per lane with internal control (β-actin). […] The western blot is shown in the upper right corner.
# Data shown in previous figures were generated using cells in culture. […] The system a cell-based 3-D corneal stromal construct containing human corneal fibroblasts (HCF) and their self-assembled matrix. This art-recognized model mimics stromal development and wound healing. To test this, we cultured human corneal fibroblasts (HCF) in 0.5 mM Vitamin C±2 ng/ml TGF-β1 (T1) and/or 10 μM p38 inhibitor #1 (SB202190) for 9 days. The media was changed every day. After 9 days, the samples were harvested and analyzed for αSMA by western blot (WB). […] The data also indicate that p38 inhibitor(s) inhibit scar formation during corneal wound healing.
# [5] = tested on: human corneal myofibroblasts (T1-treated HCF); experiment: Reversal of αSMA in TGF-β1-differentiated human corneal myofibroblasts (western blot); details: HCF pre-treated 2 ng/ml T1 for 3 days
# Description: FIGS. 7A and 7B show analysis of αSMA expression in HCF cultured as follows: 1) HCF: RM, 2) T1: RM+T1 (for 3 days), or 3) RM+T1 for 3 days, then RM±p38inh for 1 (D1), 2 (D2), or 3 days (D3). (A) Representative western blot.
# In this experiment, we examined if p38 inhibitor could not only reduce, but reverse αSMA levels, thus converting myofibroblasts back to their fibroblastic phenotype. To do this, HCF were treated with 2 ng/ml of T1 for 3 days. This allowed for the majority of the HCF to differentiate to their myofibroblastic phenotype with high levels of αSMA expression. After rinsing with PBS three times, these T1-treated cells were split into two groups: 1) regular medium (RM) and 2) p38 inhibitor (p38inh) medium. Media was changed every day. Cells were harvested after 1, 2, or 3 days for αSMA analysis by WB. […] The T1 cells then were split into two groups, RM or p38inh, and the appropriate medium was applied. […] On day 3 (D3), αSMA levels in both media samples decreased.
structure (smiles),measurement,setting,value
"Cc1ccc(-n2nc(C(C)(C)C)cc2NC(=O)Nc2ccc(OCCN3CCOCC3)c3ccccc23)cc1 [Birb-796, Doramapimod]",αSMA protein expression in the presence of TGF-β1,[1],significantly different
"Oc1ccc(-c2nc(-c3ccc(F)cc3)c(-c3ccncc3)[nH]2)cc1 [SB202190, 4-(4-Fluorophenyl)-2-(4-hydroxyphenyl)-5-(4-pyridyl)1H-imidazole]","αSMA expression (ratio of αSMA to β actin), TGF-β1-induced increase",[1],inhibits the TGF-β1 induced increase in expression of αSMA
same,"αSMA expression (ratio of αSMA to β actin), TGF-β1-induced increase",[1]; listed as p38 inhibitor,significantly different
same,αSMA expression (corrected with β-actin),[2],significantly decreased
same,αSMA expression (corrected with β-actin),[2]; listed as p38 inhibitor,significantly different
same,αSMA staining / number of SMA-positive cells,[3],mitigated
same,"αSMA expression, T1 + p38 inhibitor versus control","[4]; 10 μM inhibitor + 2 ng/ml TGF-β1, 9 days (lane 4 vs lane 1)",decreased as compared with control
same,"αSMA expression, T1 + p38 inhibitor versus T1","[4]; 10 μM inhibitor + 2 ng/ml TGF-β1, 9 days (lane 4 vs lane 2), p<0.001",significantly lower than T1; also recorded: significantly different
same,"αSMA expression, p38 inhibitor alone","[4]; 10 μM inhibitor, 9 days (lane 3), compared with control, p<0.05",significantly decreased; also recorded: significantly lower than others
same,αSMA levels on day 1 (D1),"[5]; then p38inh medium 1 day, compared with T1 control",continued to increase
same,αSMA levels on day 2 (D2),"[5]; then p38inh medium 2 days, compared with RM sample, p<0.05",significantly lower than the RM sample; also recorded: decreased significantly
same,αSMA levels on day 3 (D3),"[5]; then p38inh medium 3 days, compared with RM sample",continued to be lower than that in the RM sample
"C[S+]([O-])c1ccc(-c2nc(-c3ccc(F)cc3)c(-c3ccncc3)[nH]2)cc1 (centres unmarked) [SB203580, 4-(4′-Fluorophenyl)-2-(4′-methylsulfinylphenyl)-5-(4′-pyridyl)-imidazole]",αSMA protein expression in the presence of TGF-β1,[1],significantly different
"COc1nccc(-c2c(-c3ccc(F)cc3)ncn2C2CCC(O)CC2)n1 (stereo not drawn) [SB239063, trans-1-(4-Hydroxycyclohexyl)-4-(4-fluorophenyl)-5-(2-methoxypyridimidin-4-yl)imidazole]",αSMA protein expression in the presence of TGF-β1,[1],significantly different
